Patent US4966900A, “Cephalosporin β-lactam compound and medicinal composition” (priority 1986, dated 1990)
Structures can show the parent of a compound that is named as a salt. Where two headings read alike, the source gives them in different places.

Key:
[1] = central and tissue distribution volume in Macaco (parenteral, HPLC); type: in vivo; settings: monkey, blood, 20 mg/kg, 20 mg/kg parenteral, sodium salt
Method: 20 mg/kg of the compound obtained in Example 1 was administered parenterally to Macaco and a central distribution volume and a tissue distribution volume were calculated by their concentrations in blood measured with time.
The concentration of the compound was measured according to HPLC method. Microbondapack C18 (trade name, produced by Waters Co.) was used as a column and 8% acetonitrile-2% tetrahydrofuran-0.2% phosphoric acid was used as a solvent.

[2] = system: E. cloacae 1Y247; assay: MIC; type: cell-based; settings: Enterobacter cloacae, Table 3, sodium salt, read-out: MIC
Method: The minimum inhibition concentrations (MIC) of the compounds obtained in the respective examples described above were measured according to the standard method of Japanese Chemotherapy Association.

[3] = system: A. calcoaceticu OF1063; assay: MIC; type: cell-based; settings: Table 2, sodium salt
Method: (§1) The minimum inhibition concentrations (MIC) of the compounds obtained in Example 1 and Example 2 were measured according to the standard method of Japanese Chemotherapy Association.

[4] = system: A. xylosoxidans OF1001; assay: MIC; type: cell-based; settings: Achromobacter xylosoxidans, Table 2, sodium salt
Method: as §1

[5] = system: E. coli NIHJ JC-2; assay: MIC; type: cell-based; settings: Escherichia coli, NIHJJC2, Table 2, sodium salt
Method: as §1

[6] = system: S. aureus Smith; assay: MIC; settings: Staphylococcus aureus, Table 2, sodium salt
[7] = system: E. coli ML4707; assay: MIC; settings: Escherichia coli, ML4707, E. coli ML4707; Table 2, sodium salt
[8] = system: E. coli GN5482; assay: MIC; settings: Escherichia coli, GN5482, E. coli GN5482; Table 2, sodium salt
[9] = system: K. pneumoniae 4at521; assay: MIC; settings: Klebsiella pneumoniae, 4AT521
[10] = system: E. colacae GN7471; assay: MIC; settings: Table 2, sodium salt
[11] = system: E. cloacae 908RN; assay: MIC; settings: Enterobacter cloacae
[12] = system: C. freundii GN7391; assay: MIC; settings: Citrobacter freundii, GN7391, C. freundii GN7391
[13] = system: S. marcescens GN10857; assay: MIC; settings: Serratia marcescens, GN10857, S. marcescens GN10857; Table 2, sodium salt
[14] = system: P. vulgaris GN7919; assay: MIC; settings: Proteus vulgaris, GN7919
[15] = system: P. aeruginosa GN10362; assay: MIC; settings: Pseudomonas aeruginosa, GN10362
[16] = system: P. aeruginosa 4au542; assay: MIC; settings: Pseudomonas aeruginosa, 4AU542, P. aeruginosa 4au542; Table 2, sodium salt
[17] = system: P. aeruginosa 5D58-1; assay: MIC; settings: Pseudomonas aeruginosa, 5D581, P. aeruginosa 5D58-1; Table 2, sodium salt
[18] = system: P. cepacia OF189; assay: MIC; settings: Burkholderia cepacia, OF189, P. cepacia OF189; Table 2, sodium salt
[19] = system: P. maltophilia OF247; assay: MIC; settings: Stenotrophomonas maltophilia, Table 2, sodium salt
[20] = system: E. cloacae 5D52-2; assay: MIC; settings: Enterobacter cloacae, 5D522
[21] = system: E. cloacae 5D63-2; assay: MIC; settings: Enterobacter cloacae, 5D632
[22] = system: E. cloacae 1V25; assay: MIC; settings: Enterobacter cloacae
[23] = system: C. freundii 5D60-1; assay: MIC; settings: Citrobacter freundii, 5D601
[24] = system: C. freundii 1R523; assay: MIC; settings: Citrobacter freundii, 1R523
[25] = system: C. freundii 1R524; assay: MIC; settings: Citrobacter freundii, 1R524
[26] = system: C. freundii 1R526; assay: MIC; settings: Citrobacter freundii, 1R526
[27] = system: C. freundii 1R527; assay: MIC; settings: Citrobacter freundii, 1R527
[28] = system: C. freundii 1U589; assay: MIC; settings: Citrobacter freundii, 1U589
[29] = system: C. freundii 1U692; assay: MIC; settings: Citrobacter freundii, 1U692

Compound: CC(C)(ON=C(C(=O)NC1C(=O)N2C(C(=O)O)=C(COC(N)=O)CSC12)c1csc(N)n1)C(=O)NNC(=O)c1ccc(O)c(O)c1 (centres unmarked) [Example 1, 7-{2-[2-amino-1,3-thiazol-4-yl]-2-[1-(3-(3,4-dihydroxybenzoyl)carbazoyl)-1-methylethoxyimino]acetamide}-3-carbamoyloxymethyl-3-cephem-4-carboxylic acid.hydrochloride]
- Vd ([1]; read-out: Central distribution volume): 0.144 L/kg
- Vd ([1]; read-out: Tissue distribution volume): 0.295 L/kg
- MIC [2]: > 100 µg/mL
- MIC [3]: 3.13 µg/mL
- MIC [4]: 1.56 µg/mL
- MIC [5]: 0.1 µg/mL
- MIC [6]: 6.26 µg/mL
- MIC [7]: 0.025 µg/mL
- MIC [8]: 1.56 µg/mL
- MIC [9]: 0.012 µg/mL
- MIC [10]: 25 µg/mL
- MIC ([11]; E. cloacae 908RN, Table 3, sodium salt): > 100 µg/mL
- MIC ([11]; E. colacae 908RN, Table 2, sodium salt): > 100 µg/mL
- MIC ([12]; Table 2, sodium salt): > 100 µg/mL
- MIC ([12]; Table 3, sodium salt): > 100 µg/mL
- MIC [13]: 0.78 µg/mL
- MIC [14]: 3.13 µg/mL
- MIC [15]: 0.05 µg/mL
- MIC [16]: 0.05 µg/mL
- MIC [17]: 0.2 µg/mL
- MIC [18]: 0.025 µg/mL
- MIC [19]: 0.78 µg/mL
- MIC [20]: 25 µg/mL
- MIC [21]: 50 µg/mL
- MIC [22]: 50 µg/mL
- MIC [23]: 50 µg/mL
- MIC [24]: 25 µg/mL
- MIC [25]: 12.5 µg/mL
- MIC [26]: 25 µg/mL
- MIC [27]: 12.5 µg/mL
- MIC [28]: 12.5 µg/mL
- MIC [29]: 25 µg/mL
